Data: ChEMBL document CHEMBL3632464, “The quorum-sensing inhibiting effects of stilbenoids and their potential structure-activity relationship” (2015)
In brackets after ≈: the same amount, converted by molar mass. Activity calls are given as the source filed them. The rule behind the calls is not given here.

What was measured:
[1] = system: Chromobacterium violaceum; assay: Inhibition of Quorum sensing system in Chromobacterium violaceum CV026 after 24 hrs by agar-well diffusion method
[2] = system: Chromobacterium violaceum; assay: Antibacterial activity in Chromobacterium violaceum CV026 at 0.6 mg/ml by agar-well diffusion method; assay type: functional, organism-based
[3] = system: Chromobacterium violaceum; assay: Inhibition of Quorum sensing system in Chromobacterium violaceum CV026 assessed as inhibition of violacein synthesis at 25 to 150 uM after 18 hrs by spectrophotometric assay
[4] = system: Pseudomonas aeruginosa PAO1; assay: Inhibition of Quorum sensing system in Pseudomonas aeruginosa PAO1 assessed as inhibition of swarming motility at 100 uM after 16 hrs
[5] = system: Chromobacterium violaceum; assay: Inhibition of Quorum sensing system in Chromobacterium violaceum CV026 at 1 to 4 mg/ml after 24 hrs by agar-well diffusion method
[6] = system: Chromobacterium violaceum; assay: Inhibition of Quorum sensing system in Chromobacterium violaceum CV026 assessed as inhibition of violacein synthesis at 150 uM after 18 hrs by spectrophotometric assay
[7] = system: Pseudomonas aeruginosa PAO1; assay: Inhibition of Quorum sensing system in Pseudomonas aeruginosa PAO1 assessed as inhibition of pyocyanin production at sub-MIC concentration after 16 to 18 hrs by spectrophotometric assay
[8] = system: Pseudomonas aeruginosa PAO1; assay: Inhibition of Quorum sensing system in Pseudomonas aeruginosa PAO1 assessed as inhibition of pyocyanin production at 400 uM after 16 to 18 hrs by spectrophotometric assay
[9] = system: Pseudomonas aeruginosa; assay: Antibacterial activity in Pseudomonas aeruginosa PAO1 at 400 uM measured every 2 hrs for 24 hrs by microplate reader analysis; assay type: functional, organism-based
[10] = system: Chromobacterium violaceum; assay: Antibacterial activity in Chromobacterium violaceum CV026 for 16 hrs; assay type: functional; conditions: CV026, 16 h
[11] = system: Pseudomonas aeruginosa; assay: Antibacterial activity in Pseudomonas aeruginosa PAO1 for 16 hrs; assay type: functional; conditions: PAO1, 16 h
[12] = system: Pseudomonas aeruginosa; assay: Decrease in lasI gene expression in Pseudomonas aeruginosa PAO1 at 400 uM by RT-PCR analysis relative to control; assay type: functional
[13] = system: Pseudomonas aeruginosa; assay: Decrease in lasR gene expression in Pseudomonas aeruginosa PAO1 at 400 uM by RT-PCR analysis; assay type: functional, organism-based
[14] = system: Pseudomonas aeruginosa; assay: Decrease in rhII gene expression in Pseudomonas aeruginosa PAO1 at 400 uM by RT-PCR analysis; assay type: functional, organism-based
[15] = system: Pseudomonas aeruginosa; assay: Decrease in rhIR gene expression in Pseudomonas aeruginosa PAO1 at 400 uM by RT-PCR analysis; assay type: functional, organism-based
[16] = system: Chromobacterium violaceum; assay: Antibacterial activity in Chromobacterium violaceum CV026 at 100 ug/well by agar-well diffusion method; assay type: functional, organism-based
[17] = system: Chromobacterium violaceum; assay: Inhibition of Quorum sensing system in Chromobacterium violaceum CV026 assessed as violacein synthesis at 25 and 50 uM after 18 hrs by spectrophotometric assay
[18] = system: Chromobacterium violaceum; assay: Inhibition of Quorum sensing system in Chromobacterium violaceum CV026 assessed as inhibition of violacein synthesis at 75 uM after 18 hrs by spectrophotometric assay
[19] = system: Chromobacterium violaceum; assay: Inhibition of Quorum sensing system in Chromobacterium violaceum CV026 assessed as inhibition of violacein synthesis at 125 uM after 18 hrs by spectrophotometric assay
[20] = system: Chromobacterium violaceum; assay: Antibacterial activity in Chromobacterium violaceum CV026 at >50 ug/well by agar-well diffusion method; assay type: functional, organism-based
[21] = system: Chromobacterium violaceum; assay: Inhibition of Quorum sensing system in Chromobacterium violaceum CV026 assessed as inhibition of violacein synthesis at >100 uM after 18 hrs by spectrophotometric assay
[22] = system: Chromobacterium violaceum; assay: Inhibition of Quorum sensing system in Chromobacterium violaceum assessed as inhibition of violacein synthesis; conditions: concentration not given here

With COc1ccc(CCc2cc(OC)c(OC)c(OC)c2)cc1O the inhibition [1] was “inactive”.
For GENTAMICIN, the Activity [2] was “Active”.
In the case of COc1ccc(CCc2cc(OC)c(O)c(OC)c2)cc1O, the inhibition [1] is reported as “inactive”.
Oc1cc(O)cc(/C=C/c2ccc(O)cc2O)c1 [OXYRESVERATROL] was tested, and the inhibition [3] was “Active”, the inhibition [4] was “Active” and the inhibition [5] was “Active”. For the same compound, the inhibition [6] was 86%, the inhibition [7] was “Active” and the inhibition [8] was 50.2%. For the same compound, the Activity [9] was “inactive”, the MIC [10] was 250 µg/mL (≈ 1020 µM) and the MIC [11] was over 1000 µg/mL. The “fold change (FC)” value [12] was 3, the inhibition [13] was “Active” and the inhibition [14] was “Active”. The inhibition [15] was “Active”.
COc1cc(/C=C/c2ccc(O)cc2)cc(OC)c1 was tested, and the inhibition [1] was “inactive”.
For COc1cc2ccc3c(OC)c(O)ccc3c2c(OC)c1OC, the inhibition [1] was “inactive”.
With Oc1cc(O)cc(/C=C/c2ccc(O)c(O)c2)c1 [PICEATANNOL] the inhibition [4] was “Active”, the inhibition [5] was “Active” and the Activity [16] was “Active”. The inhibition [17] was “inactive”, the inhibition [18] was “Active” and the inhibition [19] was 46%. The inhibition [6] was 73%, the inhibition [7] was “Active” and the inhibition [8] was 37.1%. The Activity [9] was “inactive”, the MIC [10] was 250 µg/mL (≈ 1020 µM) and the MIC [11] was over 1000 µg/mL. The “fold change (FC)” value [12] was 5, the inhibition [13] was “Active” and the inhibition [14] was “Active”. The inhibition [15] was “Active”.
Oc1ccc(/C=C/c2cc(O)cc(O)c2)cc1 [RESVERATROL] was tested, and the inhibition [3] was “Active”, the inhibition [4] was “Active” and the inhibition [5] was “Active”. The Activity [20] was “Active”, the inhibition [21] was over 80% and the inhibition [7] was “Active”. For the same compound, the inhibition [8] was 59.3%, the Activity [9] was “inactive” and the MIC [10] was 150 µg/mL (≈ 657 µM). For the same compound, the MIC [11] was over 1000 µg/mL, the “fold change (FC)” value [12] was 2 and the inhibition [13] was “Active”. The inhibition [14] was “Active”, the inhibition [15] was “Active” and the inhibition [22] was 70%.
In the case of COc1c(O)cc2ccc3c(OC)c(O)ccc3c2c1OC, the inhibition [1] is reported as “inactive”.
In the case of COc1ccc(CCc2cc(O)cc(O)c2)cc1OC, the inhibition [1] is reported as “inactive”.
In the case of COc1ccc(CCc2cc(OC)c(OC)c(OC)c2)cc1OC, the inhibition [1] is reported as “inactive”.
